Test results reported in US20250170248A1, “SMARCA DEGRADERS AND USES THEREOF” (Kymera Therapeutics, Inc., priority 2021, published 2025).

Assays:
Format in all cases: cell-based
SMARCA4 = target: T1, SMARCA4 (Homo sapiens, UniProt P51532); experiment: SMARCA4 Western blot degradation in MV4-11 cells; details: for Dmax: MV4-11, MV4-11 cells, read-out: SMARCA4 MSD MV411 degradation 24 h: average Dmax %; for Dmax / DC50: 24 h; for DC50: read-out: SMARCA4 MSD MV411 degradation 24 h: Mean external-Abs DC50
T1 construct: SMARCA2/SMARCA4 protein degradation selectivity in MV4-11 cells; endogenous in cells; host or cells: MV4-11
How it was run: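 Protein levels quantified by LI-COR Western blot (beta-actin loading control) in RIPA lysates of MV4-11 cells after 24 h compound exposure. Degradation reported as DC50, Dmax % at 24 h and SMARCA2 vs SMARCA4 selectivity, each binned into letter codes.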

SMARCA2 [1] = target: T2, SMARCA2 (Homo sapiens, UniProt P51531); experiment: SMARCA2 Western blot degradation in MV4-11 cells; set-up: SMARCA2/SMARCA4 protein degradation selectivity in MV4-11 cells; endogenous in cells; host or cells: MV4-11; details: for Dmax: MV4-11, MV4-11 cells, read-out: SMARCA2 MSD MV411 degradation 24 h: average Dmax %; for Dmax / DC50: 24 h; for DC50 / Selectivity in MV411: MV4-11 cells; for DC50: read-out: SMARCA2 MSD MV411 degradation 24 h: Mean external-Abs DC50; for Selectivity in MV411: SMARCA2/4 selectivity
SMARCA2 [2] = target: T2, SMARCA2; experiment: MSD SMARCA2 degradation in A549 cell line; details: 24 h; for Dmax: A549, A549 cells; for DC50: A549 cells, read-out: SMARCA2 MSD A549 degradation 24 h: Average external-Abs DC50
How it was run: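 SMARCA2 protein remaining after 24 h exposure of A549 cells (top concentration 1000 nM, 3-fold dilutions) was measured by MSD electrochemiluminescence immunoassay of cell lysates. Results are given as binned DC50 and maximal degradation (Dmax) codes.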

T2 sequence (P51531 whole entry): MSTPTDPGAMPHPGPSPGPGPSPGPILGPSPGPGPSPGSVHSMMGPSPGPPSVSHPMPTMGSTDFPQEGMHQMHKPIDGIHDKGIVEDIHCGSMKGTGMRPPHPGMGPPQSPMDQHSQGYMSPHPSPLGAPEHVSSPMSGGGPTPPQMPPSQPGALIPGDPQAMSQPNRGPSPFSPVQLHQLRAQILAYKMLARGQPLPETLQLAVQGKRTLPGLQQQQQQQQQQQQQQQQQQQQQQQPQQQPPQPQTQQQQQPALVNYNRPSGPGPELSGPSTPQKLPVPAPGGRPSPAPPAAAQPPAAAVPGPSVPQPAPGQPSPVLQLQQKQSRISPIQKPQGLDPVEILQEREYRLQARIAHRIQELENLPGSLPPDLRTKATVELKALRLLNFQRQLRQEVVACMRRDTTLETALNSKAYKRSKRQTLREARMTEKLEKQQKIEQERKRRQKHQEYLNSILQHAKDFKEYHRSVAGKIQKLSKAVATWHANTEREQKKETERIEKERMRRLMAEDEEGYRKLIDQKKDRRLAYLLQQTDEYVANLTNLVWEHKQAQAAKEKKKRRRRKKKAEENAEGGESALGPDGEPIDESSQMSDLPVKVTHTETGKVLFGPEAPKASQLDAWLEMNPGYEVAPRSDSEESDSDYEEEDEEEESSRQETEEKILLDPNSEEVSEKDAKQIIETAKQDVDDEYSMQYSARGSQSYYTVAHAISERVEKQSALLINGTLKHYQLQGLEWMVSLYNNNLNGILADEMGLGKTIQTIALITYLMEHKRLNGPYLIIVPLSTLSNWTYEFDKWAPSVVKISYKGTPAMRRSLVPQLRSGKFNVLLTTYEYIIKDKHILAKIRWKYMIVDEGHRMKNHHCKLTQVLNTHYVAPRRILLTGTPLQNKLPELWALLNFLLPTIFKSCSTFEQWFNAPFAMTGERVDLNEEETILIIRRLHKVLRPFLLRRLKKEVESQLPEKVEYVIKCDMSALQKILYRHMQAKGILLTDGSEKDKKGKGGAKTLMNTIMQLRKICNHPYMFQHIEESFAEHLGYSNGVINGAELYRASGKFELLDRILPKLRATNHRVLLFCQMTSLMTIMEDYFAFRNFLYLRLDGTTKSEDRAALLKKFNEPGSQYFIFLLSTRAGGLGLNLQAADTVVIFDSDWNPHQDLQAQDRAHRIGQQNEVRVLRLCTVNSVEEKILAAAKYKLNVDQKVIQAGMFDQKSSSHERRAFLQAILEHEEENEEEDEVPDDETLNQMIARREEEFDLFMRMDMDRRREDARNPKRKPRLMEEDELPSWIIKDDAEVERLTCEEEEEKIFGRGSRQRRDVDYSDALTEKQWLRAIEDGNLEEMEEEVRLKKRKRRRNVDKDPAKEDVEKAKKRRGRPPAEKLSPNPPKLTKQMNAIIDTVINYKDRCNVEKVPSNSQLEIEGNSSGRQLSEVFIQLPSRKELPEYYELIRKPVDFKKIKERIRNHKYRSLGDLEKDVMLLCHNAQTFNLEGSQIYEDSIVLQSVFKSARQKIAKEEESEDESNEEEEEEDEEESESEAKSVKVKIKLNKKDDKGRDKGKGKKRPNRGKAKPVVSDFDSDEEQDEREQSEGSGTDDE
T1 sequence (P51532 whole entry): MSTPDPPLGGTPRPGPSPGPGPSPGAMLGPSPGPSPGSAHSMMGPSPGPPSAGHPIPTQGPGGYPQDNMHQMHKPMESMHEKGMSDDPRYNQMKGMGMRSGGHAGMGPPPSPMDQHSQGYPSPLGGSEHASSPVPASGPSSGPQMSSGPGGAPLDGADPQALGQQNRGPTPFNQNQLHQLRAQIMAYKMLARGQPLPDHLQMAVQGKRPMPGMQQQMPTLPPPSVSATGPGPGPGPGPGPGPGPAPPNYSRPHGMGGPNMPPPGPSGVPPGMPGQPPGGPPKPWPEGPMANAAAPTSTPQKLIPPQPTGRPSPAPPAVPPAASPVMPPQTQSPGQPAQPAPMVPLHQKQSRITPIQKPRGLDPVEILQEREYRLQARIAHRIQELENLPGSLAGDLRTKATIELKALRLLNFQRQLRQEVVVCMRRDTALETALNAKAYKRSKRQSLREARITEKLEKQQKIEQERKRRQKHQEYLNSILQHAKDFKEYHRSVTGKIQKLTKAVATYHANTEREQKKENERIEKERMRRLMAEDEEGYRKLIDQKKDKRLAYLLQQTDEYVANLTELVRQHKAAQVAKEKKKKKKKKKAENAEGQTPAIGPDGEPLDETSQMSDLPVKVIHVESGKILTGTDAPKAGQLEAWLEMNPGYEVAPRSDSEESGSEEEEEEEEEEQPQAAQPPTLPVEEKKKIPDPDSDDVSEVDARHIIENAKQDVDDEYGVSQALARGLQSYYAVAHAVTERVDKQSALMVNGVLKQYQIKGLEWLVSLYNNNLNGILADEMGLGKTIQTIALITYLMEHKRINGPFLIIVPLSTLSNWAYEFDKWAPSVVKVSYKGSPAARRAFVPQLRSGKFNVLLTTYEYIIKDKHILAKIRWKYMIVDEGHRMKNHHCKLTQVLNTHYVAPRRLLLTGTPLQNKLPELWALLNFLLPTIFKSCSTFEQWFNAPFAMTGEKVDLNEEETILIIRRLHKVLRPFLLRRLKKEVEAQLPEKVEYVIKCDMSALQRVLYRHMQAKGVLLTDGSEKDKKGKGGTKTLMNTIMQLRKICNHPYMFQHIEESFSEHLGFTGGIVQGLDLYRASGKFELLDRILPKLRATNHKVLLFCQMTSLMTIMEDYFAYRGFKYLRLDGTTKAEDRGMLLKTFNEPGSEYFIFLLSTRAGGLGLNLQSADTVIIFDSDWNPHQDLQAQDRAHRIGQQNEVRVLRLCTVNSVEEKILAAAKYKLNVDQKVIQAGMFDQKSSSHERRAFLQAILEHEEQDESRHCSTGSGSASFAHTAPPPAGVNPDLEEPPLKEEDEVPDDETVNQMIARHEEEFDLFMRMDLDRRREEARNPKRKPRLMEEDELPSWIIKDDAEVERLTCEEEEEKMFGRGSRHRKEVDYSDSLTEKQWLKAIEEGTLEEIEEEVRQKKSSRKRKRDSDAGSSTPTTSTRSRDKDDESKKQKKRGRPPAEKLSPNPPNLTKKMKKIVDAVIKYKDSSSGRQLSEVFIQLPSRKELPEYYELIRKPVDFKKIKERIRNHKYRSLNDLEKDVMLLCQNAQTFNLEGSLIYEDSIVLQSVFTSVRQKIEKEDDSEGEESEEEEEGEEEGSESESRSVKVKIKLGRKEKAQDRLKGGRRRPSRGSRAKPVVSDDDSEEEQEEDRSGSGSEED

SMILES | Dmax (SMARCA4) | DC50 (SMARCA4; MV4-11 cells) | Dmax (SMARCA2 [1]) | DC50 (SMARCA2 [1]) | Selectivity in MV411 (SMARCA2 [1]) | Dmax (SMARCA2 [2]) | DC50 (SMARCA2 [2]) | SMARCA4 MSD MV411 degradation 24 h: average Dmax % (SMARCA4; MV4-11 cells)
C#Cc1ccc([C@H](C)NC(=O)[C@@H]2C[C@@H](O)CN2C(=O)C(c2cc(N3CCC(N4CCC(N5CCC(CN6CCN7c8cc(-c9ccccc9O)nnc8NC[C@H]7C6)CC5)CC4)CC3)no2)C(C)C)cc1 (stereo partly shown) [I-291] | > 90% | 0.01 to 0.1 µM | > 90% | 0.001 to 0.01 µM | C (C (10-100 fold)) | > 90% | 0.01 to 0.05 µM | –
C#Cc1ccc(CNC(=O)[C@@H]2C[C@@H](O)CN2C(=O)[C@@H](NC(=O)c2ccc(N3CCC(N4CCC(N5CCN6c7cc(-c8ccccc8O)nnc7NC[C@H]6C5)CC4)CC3)cn2)C(C)(C)C)cc1 [I-292] | > 90% | 0.01 to 0.1 µM | > 90% | 0.001 to 0.01 µM | C (C (10-100 fold)) | > 90% | < 0.01 µM | –
C#Cc1ccc(CNC(=O)[C@@H]2C[C@@H](O)CN2C(=O)[C@@H](NC(=O)[C@H]2CC[C@@H](CN3CCC(c4cnc(N5CCN6c7cc(-c8ccccc8O)nnc7NC[C@H]6C5)nc4)CC3)CC2)C(C)(C)C)cc1 [I-293] | 50 to 70% | > 0.1 µM | 70 to 90% | 0.001 to 0.01 µM | B (B (>100-500 fold)) | > 90% | 0.01 to 0.05 µM | –
C#Cc1ccc(CNC(=O)[C@@H]2C[C@@H](O)CN2C(=O)[C@@H](NC(=O)[C@H]2CC[C@H](CN3CCC(c4cnc(N5CCN6c7cc(-c8ccccc8O)nnc7NC[C@H]6C5)nc4)CC3)CC2)C(C)(C)C)cc1 [I-294] | 70 to 90% | 0.01 to 0.1 µM | > 90% | 0.001 to 0.01 µM | C (C (10-100 fold)) | > 90% | < 0.01 µM | –
C#Cc1ccc(CNC(=O)[C@@H]2C[C@@H](O)CN2C(=O)C(c2cc(OCCN3CCC(N4CCC(N5CCC(CN6CCN7c8cc(-c9ccccc9O)nnc8NC[C@H]7C6)CC5)CC4)CC3)no2)C(C)C)c(F)c1 (stereo partly shown) [I-296] | 70 to 90% | 0.01 to 0.1 µM | > 90% | 0.001 to 0.01 µM | C (C (10-100 fold)) | > 90% | 0.05 to 0.1 µM | –
C#Cc1ccc(CNC(=O)[C@@H]2C[C@@H](O)CN2C(=O)[C@@H](NC(=O)[C@H]2CC3(C2)C[C@H](c2cnc(N4CCC(N5CCN6c7cc(-c8ccccc8O)nnc7NC[C@H]6C5)CC4)nc2)C3)C(C)(C)C)cc1 (stereo partly shown) [I-302] | – | 0.01 to 0.1 µM | – | 0.001 to 0.01 µM | C (C (10-100 fold)) | – | 0.01 to 0.05 µM | –
C#Cc1cnc(CNC(=O)[C@@H]2C[C@@H](O)CN2C(=O)C(c2cc(OCCN3CCC(N4CCC(N5CCC(CN6CCN7c8cc(-c9ccccc9O)nnc8NC[C@H]7C6)CC5)CC4)CC3)no2)C(C)C)c(OC)c1 (stereo partly shown) [I-303] | < 50% | > 0.1 µM | 70 to 90% | 0.01 to 0.1 µM | B (B (>100-500 fold)) | > 90% | > 0.1 µM | –
C#Cc1ccc([C@@H](CO)NC(=O)[C@@H]2C[C@@H](O)CN2C(=O)[C@@H](NC(=O)N2CC3(CC(N4CCC(c5cnc(N6CCc7[nH]c8nnc(-c9ccccc9O)cc8c7[C@H]6C)nc5)CC4)C3)C2)C(C)(C)C)nc1 [I-305] | < 50% | > 0.1 µM | 50 to 70% | > 0.1 µM | D (D (<10 fold)) | 50 to 70% | > 0.1 µM | –
C#Cc1ccc(CNC(=O)[C@@H]2C[C@@H](O)CN2C(=O)[C@H](NC(=O)[C@H]2CCC3(CC2)C[C@H](N2CCN(c4cnc(N5CCN6c7cc(-c8ccccc8O)nnc7NC[C@H]6C5)nc4)CC2)C3)C(C)(C)CCO)c(Cl)c1 (stereo partly shown) [I-307] | – | > 0.1 µM | – | – | D (D (<10 fold)) | – | > 0.1 µM | D (D (<50% degradation))
C#Cc1ccc(CNC(=O)[C@@H]2C[C@@H](O)CN2C(=O)[C@@H](NC(=O)N2CC3(CC(N4CCC(c5cnc(N6CCc7[nH]c8nnc(-c9ccccc9O)cc8c7[C@H]6C)nc5)CC4)C3)C2)C(C)(C)C)cc1Cl [I-309] | 70 to 90% | > 0.1 µM | > 90% | 0.01 to 0.1 µM | C (C (10-100 fold)) | > 90% | 0.01 to 0.05 µM | –
C#Cc1ccc(CNC(=O)[C@@H]2C[C@@H](O)CN2C(=O)[C@@H](NC(=O)N2CC3(CC(N4CCC(c5cnc(N6CCc7[nH]c8nnc(-c9ccccc9O)cc8c7[C@H]6C)nc5)CC4)C3)C2)C(C)(C)C)cc1F [I-310] | > 90% | > 0.1 µM | > 90% | 0.001 to 0.01 µM | C (C (10-100 fold)) | > 90% | 0.01 to 0.05 µM | –
C#Cc1ccc(CNC(=O)[C@@H]2C[C@@H](O)CN2C(=O)[C@@H](NC(=O)N2CC3(CC(N4CCC(c5cnc(N6CCc7[nH]c8nnc(-c9ccccc9O)cc8c7[C@H]6CO)nc5)CC4)C3)C2)C(C)(C)C)c(Cl)c1 [I-318] | 70 to 90% | > 0.1 µM | 70 to 90% | 0.001 to 0.01 µM | C (C (10-100 fold)) | > 90% | 0.01 to 0.05 µM | –
C#Cc1ccc(CNC(=O)[C@@H]2C[C@@H](O)CN2C(=O)[C@@H](NC(=O)N2CC3(CC(N4CCC(c5cnc(N6CCc7[nH]c8nnc(-c9ccccc9O)cc8c7[C@H]6C)nc5)CC4)C3)C2)C(C)(C)C)cc1OC [I-319] | 50 to 70% | > 0.1 µM | 70 to 90% | 0.001 to 0.01 µM | B (B (>100-500 fold)) | > 90% | 0.01 to 0.05 µM | –
C#Cc1ccc(CNC(=O)[C@@H]2C[C@@H](O)CN2C(=O)[C@@H](NC(=O)C2CC3(C2)CN(c2cnc(N4CCC(N5CCN6c7cc(-c8ccccc8O)nnc7NC[C@H]6C5)CC4)cn2)C3)C(C)(C)C)cc1 [I-320] | > 90% | 0.01 to 0.1 µM | > 90% | 0.001 to 0.01 µM | C (C (10-100 fold)) | > 90% | < 0.01 µM | –
C#Cc1ccc([C@H](C)NC(=O)[C@@H]2C[C@@H](O)CN2C(=O)[C@@H](NC(=O)N2CC3(CC(N4CCC(c5cnc(N6CCc7[nH]c8nnc(-c9ccccc9O)cc8c7[C@H]6CO)nc5)CC4)C3)C2)C(C)(C)C)cc1 [I-321] | < 50% | > 0.1 µM | 70 to 90% | 0.001 to 0.01 µM | A (A (>500 fold)) | > 90% | 0.01 to 0.05 µM | –
C#Cc1ccc(CNC(=O)[C@@H]2C[C@@H](O)CN2C(=O)[C@@H](NC(=O)N2CC3(CC(N4CCC(c5cnc(N6CCc7[nH]c8nnc(-c9ccccc9O)cc8c7[C@H]6C)s5)CC4)C3)C2)C(C)(C)C)cc1 [I-323] | 50 to 70% | > 0.1 µM | 70 to 90% | 0.001 to 0.01 µM | C (C (10-100 fold)) | > 90% | 0.01 to 0.05 µM | –
C#Cc1ccc([C@H](C)NC(=O)[C@@H]2C[C@@H](O)CN2C(=O)C(c2cc(N3CCC(CN4CCC(N5CCC(N6CCN7c8cc(-c9ccccc9O)nnc8NC[C@H]7C6)CC5)CC4)CC3)no2)C(C)C)c(Cl)c1 (stereo partly shown) [I-324] | < 50% | > 0.1 µM | < 50% | > 0.1 µM | C (C (10-100 fold)) | < 50% | > 0.1 µM | –
C#Cc1ccc(CNC(=O)[C@@H]2C[C@@H](O)CN2C(=O)C(c2cc(N3CCC(CN4CCC(N5CCC(N6CCN7c8cc(-c9ccccc9O)nnc8NC[C@H]7C6)CC5)CC4)CC3)no2)C(C)C)c(Cl)c1 (stereo partly shown) [I-325] | > 90% | 0.01 to 0.1 µM | > 90% | 0.001 to 0.01 µM | C (C (10-100 fold)) | > 90% | 0.01 to 0.05 µM | –
C#Cc1ccc([C@@H](C)NC(=O)[C@@H]2C[C@@H](O)CN2C(=O)C(c2cc(N3CCC(CN4CCC(N5CCC(N6CCN7c8cc(-c9ccccc9O)nnc8NC[C@H]7C6)CC5)CC4)CC3)no2)C(C)C)c(Cl)c1 (stereo partly shown) [I-327] | 70 to 90% | > 0.1 µM | 70 to 90% | 0.01 to 0.1 µM | C (C (10-100 fold)) | > 90% | 0.05 to 0.1 µM | –
C#Cc1cc(Cl)c(CNC(=O)[C@@H]2C[C@@H](O)CN2C(=O)[C@@H](NC(=O)[C@H]2CC3(C2)C[C@H](N2CCC(N4CCC(N5CCN6c7cc(-c8ccccc8O)nnc7NC[C@H]6C5)CC4)CC2)C3)C(C)(C)C)c(OC)c1 (stereo partly shown) [I-329] | – | > 0.1 µM | – | – | D (D (<10 fold)) | – | > 0.1 µM | –
C#Cc1cnc(CNC(=O)[C@@H]2C[C@@H](O)CN2C(=O)[C@@H](NC(=O)[C@H]2CC3(C2)C[C@H](N2CCC(N4CCC(N5CCN6c7cc(-c8ccccc8O)nnc7NC[C@H]6C5)CC4)CC2)C3)C(C)(C)C)c(OC)c1 (stereo partly shown) [I-331] | – | > 0.1 µM | – | – | C (C (10-100 fold)) | – | > 0.1 µM | –
